In ChEMBL document CHEMBL1201862, “PubChem BioAssay data set” (2004):
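Grown in 96-well plates, cells were treated for 48 hours with each compound at five concentrations. Insufficient inhibition: endpoint recorded as highest concentration tested. GI50 marks 50% less growth.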 Calls of active or inactive are those of the source. No stated cut-off is given here; in the data, active = GI50 up to about 1.1 µM and inactive = higher.

Experiments:
Test in all cases: inhibition of tumour cell growth, NCI panel, 48 h
[1] = test system: BT-549
[2] = test system: UO-31
[3] = test system: OVCAR-8
[4] = test system: SF-539
[5] = test system: HT-29
[6] = test system: SNB-19
[7] = test system: SF-268
[8] = test system: MDA-MB-231
[9] = test system: UACC-257
[10] = test system: HL-60
[11] = test system: KM12
[12] = test system: RPMI-8226
[13] = test system: Hs-578T
[14] = test system: HCT-15
[15] = test system: LOX IMVI
[16] = test system: SF-295
[17] = test system: HOP-62
[18] = test system: SW-620
[19] = test system: M14
[20] = test system: T47D
[21] = test system: NCI-H226
[22] = test system: MDA-N
[23] = test system: SN12C
[24] = test system: DU-145
[25] = test system: HCC 2998
[26] = test system: OVCAR-3
[27] = test system: NCI-H522
[28] = test system: HOP-92
[29] = test system: PC-3
[30] = test system: CAKI-1
[31] = test system: K562
[32] = test system: NCI-H23
[33] = test system: CCRF-CEM
[34] = test system: IGROV-1
[35] = test system: TK-10
[36] = test system: U-251
[37] = test system: Malme-3M
[38] = test system: A549
[39] = test system: MCF7
[40] = test system: SK-MEL-28
[41] = test system: EKVX
[42] = test system: MDA-MB-435
[43] = test system: MOLT-4
[44] = test system: ACHN
[45] = test system: HCT-116
[46] = test system: OVCAR-5
[47] = test system: SR
[48] = test system: 786-0
[49] = test system: SK-MEL-5
[50] = test system: SNB-75
[51] = test system: UACC-62
[52] = test system: SK-OV-3
[53] = test system: RXF 393
[54] = test system: OVCAR-4
[55] = test system: A498
[56] = test system: COLO 205
[57] = test system: SK-MEL-2
[58] = test system: NCI-H460
[59] = test system: NCI/ADR-RES

CC(C)(C)OC(=O)C1C(=O)NC(=O)CC1C(COCc1ccccc1)OCc1ccccc1 (configuration not stated)
GI50 [1]: 32.1 µM (inactive)
GI50 [2]: 27.1 µM (inactive)
GI50 [3]: 29.3 µM (inactive)
GI50 [4]: 21.6 µM (inactive)
GI50 [5]: 18.7 µM (inactive)
GI50 [6]: 40.6 µM (inactive)
GI50 [7]: 26.7 µM (inactive)
GI50 [8]: 17.2 µM (inactive)
GI50 [9]: 20.7 µM (inactive)
GI50 [10]: 21.4 µM (inactive)
GI50 [11]: 17.8 µM (inactive)
GI50 [12]: 20 µM (inactive)
GI50 [13]: 23.1 µM (inactive)
GI50 [14]: 21.6 µM
GI50 [15]: 19.2 µM (inactive)
GI50 [16]: 20.5 µM (inactive)
GI50 [17]: 12.1 µM (inactive)
GI50 [18]: 25.4 µM (inactive)
GI50 [19]: 18.9 µM (inactive)
GI50 [20]: 14.3 µM (inactive)
GI50 [21]: 17.6 µM (inactive)
GI50 [22]: 18 µM (inactive)
GI50 [23]: > 10 µM (inactive)
GI50 [24]: 39.7 µM (inactive)
GI50 [25]: 25.7 µM (inactive)
GI50 [26]: 21.8 µM (inactive)
GI50 [27]: 15.8 µM (inactive)
GI50 [28]: 15.5 µM (inactive)
GI50 [29]: 12.4 µM (inactive)
GI50 [30]: 50.4 µM (inactive)
GI50 [31]: 30.1 µM (inactive)
GI50 [32]: 32.6 µM (inactive)
GI50 [33]: 25.5 µM (inactive)
GI50 [34]: 22.9 µM (inactive)
GI50 [35]: 35 µM (inactive)
GI50 [36]: 20.5 µM (inactive)
GI50 [37]: 19.8 µM (inactive)
GI50 [38]: 30.4 µM (inactive)
GI50 [39]: 19.9 µM (inactive)
GI50 [40]: 18.1 µM (inactive)
GI50 [41]: 25.3 µM (inactive)
GI50 [42]: 19.1 µM (inactive)
GI50 [43]: 17.5 µM (inactive)
GI50 [44]: 23 µM (inactive)
GI50 [45]: 18.6 µM (inactive)
GI50 [46]: 12.2 µM (inactive)
GI50 [47]: 18 µM (inactive)
GI50 [48]: 24.3 µM (inactive)
GI50 [49]: 17.3 µM (inactive)

CN(C)c1ccc(/C=C2\N=C(c3ccc([N+](=O)[O-])cc3)OC2=O)cc1
GI50 [50]: > 100 µM (inactive)
GI50 [1]: 71.6 µM (inactive)
GI50 [3]: 74.8 µM (inactive)
GI50 [4]: 74.5 µM (inactive)
GI50 [51]: 65.9 µM (inactive)
GI50 [5]: 72.6 µM (inactive)
GI50 [6]: 99.8 µM (inactive)
GI50 [7]: 71.6 µM (inactive)
GI50 [8]: 64.6 µM (inactive)
GI50 [9]: 57.3 µM (inactive)
GI50 [52]: > 100 µM (inactive)
GI50 [10]: 41 µM (inactive)
GI50 [11]: 67.5 µM (inactive)
GI50 [12]: 41.7 µM (inactive)
GI50 [13]: 40.5 µM (inactive)
GI50 [53]: 21.5 µM (inactive)
GI50 [14]: 20 µM
GI50 [15]: 23.1 µM (inactive)
GI50 [16]: > 100 µM (inactive)
GI50 [17]: > 100 µM (inactive)
GI50 [18]: 67.6 µM (inactive)
GI50 [19]: > 100 µM (inactive)
GI50 [54]: > 100 µM (inactive)
GI50 [20]: 48.4 µM (inactive)
GI50 [21]: > 100 µM (inactive)
GI50 [22]: 78.9 µM (inactive)
GI50 [23]: > 100 µM (inactive)
GI50 [24]: > 100 µM (inactive)
GI50 [55]: > 100 µM (inactive)
GI50 [25]: 27.4 µM (inactive)
GI50 [26]: 44.9 µM (inactive)
GI50 [27]: 33.3 µM (inactive)
GI50 [28]: 27.1 µM (inactive)
GI50 [29]: 56.2 µM (inactive)
GI50 [30]: > 100 µM (inactive)
GI50 [56]: 99.1 µM (inactive)
GI50 [31]: 36.1 µM (inactive)
GI50 [32]: 45.1 µM (inactive)
GI50 [33]: 43.7 µM (inactive)
GI50 [34]: > 100 µM (inactive)
GI50 [35]: > 100 µM (inactive)
GI50 [57]: > 100 µM (inactive)
GI50 [36]: 53.2 µM (inactive)
GI50 [37]: 49.2 µM (inactive)
GI50 [38]: 91 µM (inactive)
GI50 [39]: 49.9 µM (inactive)
GI50 [40]: > 100 µM (inactive)
GI50 [58]: 71 µM (inactive)
GI50 [41]: > 100 µM (inactive)
GI50 [42]: 81.8 µM (inactive)
GI50 [43]: > 100 µM (inactive)
GI50 [44]: 47.6 µM (inactive)
GI50 [45]: 34.8 µM (inactive)
GI50 [46]: > 100 µM (inactive)
GI50 [47]: 38.4 µM (inactive)
GI50 [48]: 90.8 µM (inactive)
GI50 [49]: > 100 µM (inactive)

CCOC(=O)c1cc(C2(O)CCN(Cc3ccccc3)C2=O)c(-c2cc(C)no2)[nH]1 (configuration not stated)
GI50 [50]: 26.6 µM (inactive)
GI50 [1]: 66.2 µM (inactive)
GI50 [2]: 32.1 µM (inactive)
GI50 [3]: 37.3 µM (inactive)
GI50 [4]: 89.7 µM (inactive)
GI50 [51]: 47.8 µM (inactive)
GI50 [6]: 81.1 µM (inactive)
GI50 [7]: > 100 µM (inactive)
GI50 [8]: 29 µM (inactive)
GI50 [9]: 75.9 µM (inactive)
GI50 [10]: 15.3 µM (inactive)
GI50 [11]: 37.8 µM (inactive)
GI50 [12]: 26.4 µM (inactive)
GI50 [13]: 34 µM (inactive)
GI50 [53]: 13.3 µM (inactive)
GI50 [14]: 71.3 µM
GI50 [15]: 29.5 µM (inactive)
GI50 [16]: 25.6 µM (inactive)
GI50 [17]: 64.7 µM (inactive)
GI50 [18]: 47.1 µM (inactive)
GI50 [19]: 55 µM (inactive)
GI50 [54]: 30.3 µM (inactive)
GI50 [20]: 17.9 µM (inactive)
GI50 [21]: 55.7 µM (inactive)
GI50 [22]: 57.3 µM (inactive)
GI50 [23]: 69 µM (inactive)
GI50 [24]: 88.9 µM (inactive)
GI50 [55]: > 100 µM (inactive)
GI50 [25]: 92.9 µM (inactive)
GI50 [26]: 36.5 µM (inactive)
GI50 [27]: 15.4 µM (inactive)
GI50 [29]: 42.4 µM (inactive)
GI50 [30]: 32.8 µM (inactive)
GI50 [56]: 56.8 µM (inactive)
GI50 [31]: 27 µM (inactive)
GI50 [32]: 73.3 µM (inactive)
GI50 [33]: 29 µM (inactive)
GI50 [34]: 46.7 µM (inactive)
GI50 [35]: 67.1 µM (inactive)
GI50 [59]: 38.5 µM (inactive)
GI50 [57]: 48.8 µM (inactive)
GI50 [36]: 44.7 µM (inactive)
GI50 [37]: > 100 µM (inactive)
GI50 [38]: 40.1 µM (inactive)
GI50 [39]: 47.4 µM (inactive)
GI50 [40]: 59.6 µM (inactive)
GI50 [58]: 32.4 µM (inactive)
GI50 [41]: 41.4 µM (inactive)
GI50 [42]: 36.7 µM (inactive)
GI50 [43]: 12.6 µM (inactive)
GI50 [44]: 45.5 µM (inactive)
GI50 [45]: 37.9 µM (inactive)
GI50 [46]: 61.4 µM (inactive)
GI50 [47]: 27.3 µM (inactive)
GI50 [48]: 60.3 µM (inactive)
GI50 [49]: 40 µM (inactive)

CN1C2CC(=O)CC1[C@@H]1OC(c3ccccc3)O[C@H]21 (some centres not stated)
GI50 [50]: > 100 µM (inactive)
GI50 [1]: > 100 µM (inactive)
GI50 [2]: > 100 µM (inactive)
GI50 [3]: > 100 µM (inactive)
GI50 [4]: > 100 µM (inactive)
GI50 [51]: > 100 µM (inactive)
GI50 [5]: > 100 µM (inactive)
GI50 [6]: > 100 µM (inactive)
GI50 [7]: > 100 µM (inactive)
GI50 [8]: > 100 µM (inactive)
GI50 [9]: > 100 µM (inactive)
GI50 [52]: > 100 µM (inactive)
GI50 [10]: > 100 µM (inactive)
GI50 [11]: > 100 µM (inactive)
GI50 [12]: > 100 µM (inactive)
GI50 [13]: > 100 µM (inactive)
GI50 [53]: > 100 µM (inactive)
GI50 [14]: > 100 µM
GI50 [15]: > 100 µM (inactive)
GI50 [16]: > 100 µM (inactive)
GI50 [17]: > 100 µM (inactive)
GI50 [18]: > 100 µM (inactive)
GI50 [19]: > 100 µM (inactive)
GI50 [54]: > 100 µM (inactive)
GI50 [20]: > 100 µM (inactive)
GI50 [21]: > 100 µM (inactive)
GI50 [22]: > 100 µM (inactive)
GI50 [23]: > 100 µM (inactive)
GI50 [24]: > 100 µM (inactive)
GI50 [25]: > 100 µM (inactive)
GI50 [26]: > 100 µM (inactive)
GI50 [27]: > 100 µM (inactive)
GI50 [29]: > 100 µM (inactive)
GI50 [30]: > 100 µM (inactive)
GI50 [56]: > 100 µM (inactive)
GI50 [31]: > 100 µM (inactive)
GI50 [32]: > 100 µM (inactive)
GI50 [33]: > 100 µM (inactive)
GI50 [34]: > 100 µM (inactive)
GI50 [35]: > 100 µM (inactive)
GI50 [59]: > 100 µM (inactive)
GI50 [57]: > 100 µM (inactive)
GI50 [36]: > 100 µM (inactive)
GI50 [37]: > 100 µM (inactive)
GI50 [38]: > 100 µM (inactive)
GI50 [39]: > 100 µM (inactive)
GI50 [40]: > 100 µM (inactive)
GI50 [58]: > 100 µM (inactive)
GI50 [41]: > 100 µM (inactive)
GI50 [42]: > 100 µM (inactive)
GI50 [43]: > 100 µM (inactive)
GI50 [45]: > 100 µM (inactive)
GI50 [47]: > 100 µM (inactive)
GI50 [48]: > 100 µM (inactive)
GI50 [49]: > 100 µM (inactive)
